Structures are written as SMILES. Values joined by “and” are separate entries in the source; they are usually repeats but may differ in a detail not shown here. Equal values may be shown once. Read-outs that look alike come from different tables or passages of the source.

Data set [1] is described as follows: ORAC (oxygen radical absorbance capacity) assay. The following applies: Trolox equivalent. Type of data set: biochemical. As for the experimental part: The ORAC assay is based on the scavenging of peroxyl radicals generated by 2,2′-azobis(2-methylpropioamidine) dihydrochloride (AAPH), which prevents the degradation of the fluorescein probe. The ORAC values were calculated as the area under the curve (AUC) and expressed as µM of Trolox equivalent (TE).

The nature of data set [2]: ABTS radical scavenging activity. In kind it is biochemical. The method, then: […] in 2.5 mM potassium persulfate for more than 16 h to develop 7 mM 2,2′-azinobis-(3-ethylbenzothiazoline-6-sulfonic acid diammonium salt) (ABTS), and ethanol was diluted to obtain an absorbance of 0.3 at 620 nm. Each composite sample was diluted by concentration, and 100 μL of the sample was put into each well along with 50 μL each of ABTS reagent and solvent; reacted at room temperature for 10 min, and absorbance was measured at 620 nm. ABTS activity inhibition (%) = 100 − [test group-blank]/(control group-blank) × 100]

The next data set has as its system Hs68 cells. Briefly: MTT cell viability of Hs68 cells with or without LED light. The conditions noted are these: for IC50: Homo sapiens, light or radiation study, Hs68 cells. Type of data set: cell-based, human. As for the experimental part: Data were represented as mean ± SD from at least three independent experiments and analyzed by one-way ANOVA with Tukey’s post hoc test, * p < 0.01, compared with vehicle-treated control.
Hs68 and BALB/c 3T3 cell viability was measured using a 3-[4,5-dimethylthylthiazol-2-yl]-2,5 diphenyl tetrazolium bromide (MTT) assay. The cells were cultured in 24-well plates at a density of 3 × 10^4 cells per well or BALB/c 3T3 cells at a density of 1 × 10^4 cells per well. […] The Hs68 cells were then exposed to LED light (660 nm; 89 W/m^2; 20 J/cm^2) for 37 min 27 s and incubated for 3 h. […] The cells were washed and treated with MTT, after which the plates were incubated at 37 °C in the dark for 2 h. After the formation of formazan, 100 µL of DMSO was added, and the absorbance was measured at 570 nm using a microtiter plate reader (Thermo-scientific, Skanlt software 5.0, Waltham, MA, USA)

Where [3] appears, read: dark, read-out: Dark Condition (EC50, μM) ABTS radical scavenging.

On to `NCC(=O)CCC(=O)O` [5-ALA, 5-Aminolevulinic acid, reference compound], for which the “ORAC Dark Condition (TE, μM)” value in data set [1] (1 μM compound) and in data set [1] (10 μM compound) was “undetectable” throughout. In data set [2] (setting [3]), the EC50 came out at 60.3 ± 9.51 µM.
In the case of `C=Cc1c(C)c2cc3nc(c(CC(=O)O)c4[nH]c(cc5nc(cc1[nH]2)C(C)=C5CC)c(C)c4C(=O)O)[C@@H](CCC(=O)O)[C@@H]3C` [Ce6, Chlorin e6], the “ORAC LED Condition (TE, μM)” value in data set [1] (LED 20 J/cm^2, 1 μM compound) was determined as 22.11 µM; in data set [1] (LED 20 J/cm^2, 10 μM compound), 53.85 µM. Further, the “ORAC Dark Condition (TE, μM)” value is 18.5 µM in data set [1] (1 μM compound) and 47.72 µM in data set [1] (10 μM compound). For the same compound, the IC50 in the data set on Hs68 cells (LED 660 nm 20 J/cm^2, MTT, read-out: Phototoxicity (IC50)) was 0.615 µM; in the data set on Hs68 cells (without LED irradiation, MTT, read-out: Dark Toxicity (IC50)), at least 1 µM. Moreover, the “cytotoxicity for Hs68 cells” value with Hs68 cells (dark, up to 1000 nM) is “almost no cytotoxicity”. Also, the EC50 is ~19.8 µM and 19.8 µM in data set [2] (LED light, read-out: LED Condition (EC50, μM) ABTS radical scavenging); ~13.6 µM and 13.6 µM in data set [2] (setting [3]).

A word on the EC50: it is the concentration at which the effect is half-maximal. For orientation: IC50 means the point on the concentration scale where inhibition reaches its midpoint.

Source of the values: paper PMC10487708, “Chlorin E6-Curcumin-Mediated Photodynamic Therapy Promotes an Anti-Photoaging Effect in UVB-Irradiated Fibroblasts” (International Journal of Molecular Sciences, 2023).
